Experimental data from article PMC4001449, “Thienoquinolines as Novel Disruptors of the PKCε/RACK2 Protein–Protein Interaction” (Journal of Medicinal Chemistry, 2014).

Assays:
MARCKS phosphorylation = MARCKS phosphorylation in HeLa cells (Western blot); type: cell-based; details: 50 μM for 30 min, 100 nM TPA last 10 min
Description: Figure 6 Compound 8 inhibits MARCKS phosphorylation, cell proliferation, and invasion following treatment with 8. (A) HeLa cells were starved for 16 h in medium without fetal calf serum. Subsequently, they were treated with 50 μM solution of compound 8 for 30 min and 100 nM TPA for the last 10 min. An amount of 150 μg of protein from lysed cells was loaded onto SDS 8–16% gels. Tubulin was used as loading control. Below a representative blot, a bar graph corresponding to quantitative scans of three independent experiments (±SD) is shown. (B) Cell proliferation following treatment of HeLa and PC-3 cells with 8. The mean values (±SD) of three independent experiments, in which three samples were taken within each experiment, are shown. (C) Invasion of cells through a membrane. Cell invasion was determined as described in Experimental Section. In HeLa cells with a doxycycline-inducible PKCε the expression of PKCε was induced with doxycycline (control + Dox). The mean of three experiments (±SD) is shown: (∗) p = 0.03. The data are normalized to the control (100%). Therefore, the standard deviation for the control is 0.
For PKCε translocation PC-3 cells were starved for 16 h, treated with 8 for 30 min, stimulated with 50 nM TPA for 5 min, lysed, and fractionated with a CNMCS/CNM compartmental protein extraction kit (BioChain Institute, Newark, CA). […]

PKCε [1] = experiment: PKCε translocation by immunofluorescence in PC-3 cells; type: cell-based, human; details: Figure 4
Description: PC-3 cells were grown on glass coverslips coated with poly-L-lysine (Sigma-Aldrich). After treatment with 8 for 30 min and with 100 nM TPA for 5 min, the cells were rinsed twice with phosphate buffered saline (PBS) and fixed with filter sterilized 4% (w/v) paraformaldehyde/4% sucrose (w/v) (both from Sigma-Aldrich) in PBS at room temperature for 10 min. Subsequently the cells were washed three times with PBS and permeabilized with 0.2% Triton X-100/0.2% IgG-free BSA in PBS at room temperature for 10 min. After blocking with 5% normal goat serum diluted in PBS as described above for 30 min, cells were incubated with the primary antibodies for PKCε (Santa Cruz; diluted 1:500) in 0.2% Triton X-100/0.2% IgG-free BSA in PBS at 4 °C overnight. Subsequently, the cells were washed three times with the same buffer and incubated with the labeled secondary antibody (Alexa Fluor, Invitrogen, Life Technologies, Carlsbad, CA; 1:4000) at room temperature for 1 h. After three more washes with 0.2% Triton X-100/0.2% IgG-free BSA in PBS, cells were mounted with Mowiol (Sigma-Aldrich) and images were taken with an Olympus BX 50 optical microscope (Olympus Corporation, Tokyo, Japan).

PKCε [2] = biological target: T1, PKCε (Homo sapiens, UniProt Q02156); experiment: PKC isozyme assay, PKCε; type: biochemical; details: 50 µM, Supp. Figure 2
T1 sequence (Q02156 1-737): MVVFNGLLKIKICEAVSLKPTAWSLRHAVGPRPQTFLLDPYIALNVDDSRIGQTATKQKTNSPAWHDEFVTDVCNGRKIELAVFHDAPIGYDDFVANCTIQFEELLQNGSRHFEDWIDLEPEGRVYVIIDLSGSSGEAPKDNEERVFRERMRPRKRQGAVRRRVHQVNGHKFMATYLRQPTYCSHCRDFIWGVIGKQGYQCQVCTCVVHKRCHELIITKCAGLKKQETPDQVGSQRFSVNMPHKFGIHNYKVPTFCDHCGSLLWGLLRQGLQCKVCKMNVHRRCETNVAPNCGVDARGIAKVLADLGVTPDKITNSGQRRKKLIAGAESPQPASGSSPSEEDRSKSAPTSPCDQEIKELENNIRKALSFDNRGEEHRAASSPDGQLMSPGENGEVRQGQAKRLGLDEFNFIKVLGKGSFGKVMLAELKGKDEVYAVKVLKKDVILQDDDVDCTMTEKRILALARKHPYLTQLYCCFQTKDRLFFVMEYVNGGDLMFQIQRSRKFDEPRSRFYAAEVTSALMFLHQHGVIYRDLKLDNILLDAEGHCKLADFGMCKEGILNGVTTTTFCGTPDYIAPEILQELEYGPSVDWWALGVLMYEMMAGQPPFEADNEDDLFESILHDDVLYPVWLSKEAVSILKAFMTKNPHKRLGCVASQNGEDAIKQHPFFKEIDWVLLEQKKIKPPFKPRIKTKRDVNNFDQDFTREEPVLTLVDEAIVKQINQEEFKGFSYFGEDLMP
Description: Supporting Information Figure 2. Effect of compound 8 on PKC isozymes. 50 µM of compound
8 were used in the PKC assays as described in Gruber et al., J. Biochem. 2011, 149, 331-336. *p
= 0.015, **p = 0.0028, ***p = 0.0007. The control is standardized (100%). Therefore, the
standard deviation for the control is 0.
(1 picture or pasted object on this page, not shown here)

## CC(=O)c1cccc(NC(=O)c2sc3nc4cc5c(cc4cc3c2N)OCCO5)c1 [Compound 8, N-(3-acetylphenyl)-9-amino-2,3-dihydro-1,4-dioxino[2,3-g]thieno[2,3-b]quinoline-8-carboxamide]
MARCKS phosphorylation
  Phosphorylation of MARCKS: inhibited
PKCε [1]
  TPA-induced PKCε translocation to the plasma membrane (immunocytochemistry): prevented
PKCε [2]
  Inhibition of PKCε in vitro: does not inhibit
